Test results from ChEMBL document CHEMBL3044557, “Phytotoxicity Caused by Peroxidizing Herbicides Is Alleviated by 2-Substituted 4, 6-Bis(ethylamino)-1, 3, 5-triazines” (J Pestic Sci, 1997).
Activity calls are given as the source filed them. The rule behind the calls is not given here.

Legend:
Scenedesmus acutus [1] = experiment: Protection against chlorophthalim-induced phytotoxicity in Scenedesmus acutus in light condition assessed as cell density per micro liter of packed cell volume after 16 hr (reference value: 2.1 ml); assay type: functional; design: unit not given here
Scenedesmus acutus [2] = experiment: Protection against chlorophthalim-induced phytotoxicity in Scenedesmus acutus in light condition assessed as reduction of protoporphyrin-9 accumulation per ml of packed cell volume after 2 hr; assay type: functional
Scenedesmus acutus [3] = experiment: Protection against chlorophthalim-induced phytotoxicity in Scenedesmus acutus in light condition assessed as reduction of ethane formation per ml of packed cell volume after 16 hr (reference value: 11.82 nM); assay type: functional
Scenedesmus acutus [4] = experiment: Phytotoxicity against Scenedesmus acutus in light condition assessed as reduction of chlorophyll content after 16 hr (reference value: 20.25 ug/ml); assay type: functional
Scenedesmus acutus [5] = experiment: Protection against oxyfluorfen-induced phytotoxicity in Scenedesmus acutus in light condition assessed as cell density per micro liter of packed cell volume after 16 hr (reference value: 2.1 ml); assay type: functional; design: unit not given here
Scenedesmus acutus [6] = experiment: Protection against oxyfluorfen-induced phytotoxicity in Scenedesmus acutus in light condition assessed as reduction of protoporphyrin-9 accumulation per ml of packed cell volume after 2 hr; assay type: functional
Scenedesmus acutus [7] = experiment: Phytotoxicity against Scenedesmus acutus in dark condition assessed as effect on protoporphyrin-9 accumulation per ml of packed cell volume at 10^-5 M after 16 hr; assay type: functional, organism-based
Scenedesmus acutus [8] = experiment: Protection against oxyfluorfen-induced phytotoxicity in Scenedesmus acutus in light condition assessed as reduction of ethane formation per ml of packed cell volume after 16 hr (reference value: 11.82 nM); assay type: functional
Scenedesmus acutus [9] = experiment: Protection against chlorophthalim-induced phytotoxicity in Scenedesmus acutus in light condition assessed as increase of chlorophyll content after 16 hr (reference value: 0.94 ug/ml); assay type: functional
Scenedesmus acutus [10] = experiment: Phytotoxicity against Scenedesmus acutus in light condition assessed as cell density per micro liter of packed cell volume after 16 hr (reference value: 3.4 ml); assay type: functional; design: unit not given here
Scenedesmus acutus [11] = experiment: Protection against oxyfluorfen-induced phytotoxicity in Scenedesmus acutus in light condition assessed as increase of chlorophyll content after 16 hr (reference value: 0.94 ug/ml); assay type: functional
Scenedesmus acutus [12] = experiment: Phytotoxicity against Scenedesmus acutus in light condition assessed as effect on protoporphyrin-9 accumulation per ml of packed cell volume at 10^-5 M after 16 hr; assay type: functional, organism-based

Compound | Activity (Scenedesmus acutus [1]) | Activity (Scenedesmus acutus [2]) [nmol/mL] | Activity (Scenedesmus acutus [3]) [nmol/mL] | Activity (Scenedesmus acutus [4]) [µg/mL] | Activity (Scenedesmus acutus [5]) | Activity (Scenedesmus acutus [6]) [nM] | Activity (Scenedesmus acutus [7]) | Activity (Scenedesmus acutus [8]) [nM] | Activity (Scenedesmus acutus [9]) [µg/mL] | Activity (Scenedesmus acutus [10]) | Activity (Scenedesmus acutus [11]) [µg/mL] | Activity (Scenedesmus acutus [12])
CCNc1nc(NCC)nc(-c2ccccc2)n1 | 2.3 | 133.96 | 13.64 | 19.08 | 2.2 | 69.9 | inactive | 11.93 | 0.46 | 3.2 | 0.67 | inactive
CCNc1nc(NCC)nc(C(Cl)(Cl)Cl)n1 | 2.4 | 27.65 | 3.63 | 19.23 | 2.2 | 37.08 | inactive | 1.63 | 10.48 | 2.6 | 13.31 | inactive
CCNc1nc(NCC)nc(C(F)(F)F)n1 | 2.4 | 38.65 | 3.2 | 16.7 | 2.4 | 31.24 | inactive | 1.26 | 11.04 | 2.6 | 13.53 | inactive
CCNc1nc(NCC)nc(SC)n1 [SIMETRYN] |  | 31.92 | 1.7 | 17.74 |  | 30.67 | inactive | 0.4 | 10.52 |  | 14.46 | inactive
CCNc1nc(Cl)nc(NCC)n1 [SIMAZINE] |  | 19.15 | 4.24 | 16.86 |  | 52.7 | inactive | 2.82 | 10.52 |  | 13.05 | inactive
O=C1C2=C(CCCC2)C(=O)N1c1ccc(Cl)cc1 [CHLOROPHTHALIUM] | 2.3 | 128.65 | 12.73 |  |  |  |  |  | 0.99 |  |  | 
CCOc1cc(Oc2ccc(C(F)(F)F)cc2Cl)ccc1[N+](=O)[O-] [OXYFLUORFEN] |  |  |  |  |  | 102.38 |  | 11.82 |  |  | 0.94 | 
CCNc1nc(C)nc(NCC)n1 | 2.3 | 67.45 | 12.92 | 19.09 | 2.3 | 57.97 | inactive | 11.93 | 1.37 | 3 | 1.05 | inactive
CN(C)C(=O)Nc1ccc(Cl)c(Cl)c1 [DCMU] |  | 18.86 | 0.41 | 17.66 |  | 29.12 |  |  | 11.56 |  | 14.57 | 
